Assay results from US12390437B2, “Itaconic acid derivatives and uses thereof intreating an inflammatory disease or a disease associated with an undesirable immune response” (Sitryx Therapeutics Limited, priority 2019, dated 2025).

Test system: hepatocytes
Assay: Hepatocyte stability assay (human)
Type: in vitro ADME
Details: 10 μM compound, 0.5×10^6 cells/mL, 60 minutes
Method in brief: (§1)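 Cryopreserved hepatocytes (viability >70%), 0.5×10^6 cells/mL in Leibovitz buffer, incubated at 37 °C with 10 μM compound (0.1% DMSO), duplicates; buffer-only incubations as negative control. Samples at 0-60 min quenched in acetonitrile, parent measured by LC-MS/MS; half-life and Clint (μL min^−1 10^−6 cells) from ln % remaining versus time slope.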

Row | CIint (μL min^−1 10^−6 cells) | Structure (SMILES)
1 | 15 | C=C(CC(=O)OC1CCCCCCC1)C(=O)OCCC(=O)O [Example 82, 3-((4-(cyclooctyloxy)-2-methylene-4-oxobutanoyl)oxy)propanoic acid]
2 | 86 | C=C(CC(=O)O[C@@H](C)CCCCCC)C(=O)OCCC(=O)O [Example 84, (S)-3-((2-methylene-4-(octan-2-yloxy)-4-oxobutanoyl)oxy)propanoic acid]

Test system: not listed separately
Assay: Hepatocyte stability assay (human)
Type: in vitro ADME
Details: cryopreserved hepatocytes, 10 μM compound, 0.5×10^6 cells/mL, 60 minutes, read-out: T½
Method in brief: as §1

Row | half-life at 10 μM [min] | Structure (SMILES)
3 | 91 | C=C(CC(=O)OC1CCCCCCC1)C(=O)OCCC(=O)O [Example 82, 3-((4-(cyclooctyloxy)-2-methylene-4-oxobutanoyl)oxy)propanoic acid]
4 | 16 | C=C(CC(=O)O[C@@H](C)CCCCCC)C(=O)OCCC(=O)O [Example 84, (S)-3-((2-methylene-4-(octan-2-yloxy)-4-oxobutanoyl)oxy)propanoic acid]

Test system: IL-6 cytokine output from THP-1s
Assay: THP-1 AlphaLISA IL-6 cytokine assay
Type: cell-based, human
Details: Homo sapiens; PMA-differentiated THP-1 cells, LPS 24 hr then Nigericin 1 hour
Method in brief: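 Cells are differentiated with PMA over 72 h, switched to 1% FBS medium and treated with compound for 30 min before LPS stimulation for 24 h. Nigericin is added for a final hour, and secreted cytokine is measured by AlphaLISA, with IC50 fitted from percent inhibition.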

Row | IC50 [µM] | Structure (SMILES)
5 | 18.9 | C=C(CC(=O)OC1CCCCCCC1)C(=O)OCCC(=O)O [Example 82, 3-((4-(cyclooctyloxy)-2-methylene-4-oxobutanoyl)oxy)propanoic acid]
6 | 22 | C=C(CC(=O)O[C@@H](C)CCCCCC)C(=O)OCCC(=O)O [Example 84, (S)-3-((2-methylene-4-(octan-2-yloxy)-4-oxobutanoyl)oxy)propanoic acid]

Test system: not listed separately
Assay: Mouse pharmacokinetic study, oral administration
Type: in vivo
Details: male, C57BL/6, mouse, plasma, po, 100 mg/kg, plasma, male C57BL/6 mice, oral gavage 100 mg/kg, 0.083 h; read-out: Parent compound concentrations following oral administration, Time 0.083 h
Method in brief: (§2)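 Young adult male C57BL/6 mice get a single 10 mg/kg IV or 100 mg/kg oral dose. Semi-serial plasma sampling, three mice per point, and LC-MS/MS quantitation follow.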

Row | concentration at 0.083 h [ng/mL] | Structure (SMILES)
7 | 27500 | C=C(CC(=O)OC1CCCCCCC1)C(=O)OCCC(=O)O [Example 82, 3-((4-(cyclooctyloxy)-2-methylene-4-oxobutanoyl)oxy)propanoic acid]

Same assay, conditions: male, C57BL/6, mouse, plasma, po, 100 mg/kg, plasma, male C57BL/6 mice, oral gavage 100 mg/kg, 0.25 h; read-out: Parent compound concentrations following oral administration, Time 0.25 h

Row | concentration at 0.25 h [ng/mL] | Structure (SMILES)
8 | 18000 | C=C(CC(=O)OC1CCCCCCC1)C(=O)OCCC(=O)O [Example 82, 3-((4-(cyclooctyloxy)-2-methylene-4-oxobutanoyl)oxy)propanoic acid]
9 | 9090 | C=C(CC(=O)O[C@@H](C)CCCCCC)C(=O)OCCC(=O)O [Example 84, (S)-3-((2-methylene-4-(octan-2-yloxy)-4-oxobutanoyl)oxy)propanoic acid]

Same assay, conditions: male, C57BL/6, mouse, plasma, po, 100 mg/kg, plasma, male C57BL/6 mice, oral gavage 100 mg/kg, 0.5 h; read-out: Parent compound concentrations following oral administration, Time 0.5 h

Row | concentration at 0.5 h [ng/mL] | Structure (SMILES)
10 | 6450 | C=C(CC(=O)OC1CCCCCCC1)C(=O)OCCC(=O)O [Example 82, 3-((4-(cyclooctyloxy)-2-methylene-4-oxobutanoyl)oxy)propanoic acid]
11 | 5120 | C=C(CC(=O)O[C@@H](C)CCCCCC)C(=O)OCCC(=O)O [Example 84, (S)-3-((2-methylene-4-(octan-2-yloxy)-4-oxobutanoyl)oxy)propanoic acid]

Same assay, conditions: male, C57BL/6, mouse, plasma, po, 100 mg/kg, plasma, male C57BL/6 mice, oral gavage 100 mg/kg, 1 h; read-out: Parent compound concentrations following oral administration, Time 1 h

Row | concentration at 1 h [ng/mL] | Structure (SMILES)
12 | 3400 | C=C(CC(=O)OC1CCCCCCC1)C(=O)OCCC(=O)O [Example 82, 3-((4-(cyclooctyloxy)-2-methylene-4-oxobutanoyl)oxy)propanoic acid]
13 | 3310 | C=C(CC(=O)O[C@@H](C)CCCCCC)C(=O)OCCC(=O)O [Example 84, (S)-3-((2-methylene-4-(octan-2-yloxy)-4-oxobutanoyl)oxy)propanoic acid]

Same assay, conditions: male, C57BL/6, mouse, plasma, po, 100 mg/kg, plasma, male C57BL/6 mice, oral gavage 100 mg/kg, 2 h; read-out: Parent compound concentrations following oral administration, Time 2 h

Row | concentration at 2 h [ng/mL] | Structure (SMILES)
14 | 1040 | C=C(CC(=O)OC1CCCCCCC1)C(=O)OCCC(=O)O [Example 82, 3-((4-(cyclooctyloxy)-2-methylene-4-oxobutanoyl)oxy)propanoic acid]
15 | 1000 | C=C(CC(=O)O[C@@H](C)CCCCCC)C(=O)OCCC(=O)O [Example 84, (S)-3-((2-methylene-4-(octan-2-yloxy)-4-oxobutanoyl)oxy)propanoic acid]

Same assay, conditions: male, C57BL/6, mouse, plasma, po, 100 mg/kg, plasma, male C57BL/6 mice, oral gavage 100 mg/kg, 4 h; read-out: Parent compound concentrations following oral administration, Time 4 h

Row | concentration at 4 h [ng/mL] | Structure (SMILES)
16 | 568 | C=C(CC(=O)OC1CCCCCCC1)C(=O)OCCC(=O)O [Example 82, 3-((4-(cyclooctyloxy)-2-methylene-4-oxobutanoyl)oxy)propanoic acid]
17 | 368 | C=C(CC(=O)O[C@@H](C)CCCCCC)C(=O)OCCC(=O)O [Example 84, (S)-3-((2-methylene-4-(octan-2-yloxy)-4-oxobutanoyl)oxy)propanoic acid]

Same assay, conditions: male, C57BL/6, mouse, plasma, po, 100 mg/kg, plasma, male C57BL/6 mice, oral gavage 100 mg/kg, 6 h; read-out: Parent compound concentrations following oral administration, Time 6 h

Row | concentration at 6 h [ng/mL] | Structure (SMILES)
18 | 112 | C=C(CC(=O)OC1CCCCCCC1)C(=O)OCCC(=O)O [Example 82, 3-((4-(cyclooctyloxy)-2-methylene-4-oxobutanoyl)oxy)propanoic acid]

Same assay, conditions: male, C57BL/6, mouse, plasma, po, 100 mg/kg, plasma, male C57BL/6 mice, oral gavage 100 mg/kg, 8 h; read-out: Parent compound concentrations following oral administration, Time 8 h

Row | concentration at 8 h [ng/mL] | Structure (SMILES)
19 | 86 | C=C(CC(=O)OC1CCCCCCC1)C(=O)OCCC(=O)O [Example 82, 3-((4-(cyclooctyloxy)-2-methylene-4-oxobutanoyl)oxy)propanoic acid]
20 | 217 | C=C(CC(=O)O[C@@H](C)CCCCCC)C(=O)OCCC(=O)O [Example 84, (S)-3-((2-methylene-4-(octan-2-yloxy)-4-oxobutanoyl)oxy)propanoic acid]

Same assay, conditions: male, C57BL/6, mouse, plasma, po, 100 mg/kg, plasma, male C57BL/6 mice, oral gavage 100 mg/kg, 24 h; read-out: Parent compound concentrations following oral administration, Time 24 h

Row | concentration at 24 h [ng/mL] | Structure (SMILES)
21 | < 0.8 | C=C(CC(=O)OC1CCCCCCC1)C(=O)OCCC(=O)O [Example 82, 3-((4-(cyclooctyloxy)-2-methylene-4-oxobutanoyl)oxy)propanoic acid]
22 | < 31 | C=C(CC(=O)O[C@@H](C)CCCCCC)C(=O)OCCC(=O)O [Example 84, (S)-3-((2-methylene-4-(octan-2-yloxy)-4-oxobutanoyl)oxy)propanoic acid]

Test system: not listed separately
Assay: Mouse pharmacokinetic study, intravenous dosing
Type: in vivo
Details: male, C57BL/6, mouse, iv; plasma, 10 mg/kg i.v., time 0.05 h; read-out: Parent compound concentration following intravenous administration
Method in brief: as §2

Row | concentration at 0.05 h [ng/mL] | Structure (SMILES)
23 | 17600 | C=C(CC(=O)OC1CCCCCCC1)C(=O)OCCC(=O)O [Example 82, 3-((4-(cyclooctyloxy)-2-methylene-4-oxobutanoyl)oxy)propanoic acid]
24 | 5580 | C=C(CC(=O)O[C@@H](C)CCCCCC)C(=O)OCCC(=O)O [Example 84, (S)-3-((2-methylene-4-(octan-2-yloxy)-4-oxobutanoyl)oxy)propanoic acid]

Same assay, conditions: male, C57BL/6, mouse, iv; plasma, 10 mg/kg i.v., time 0.133 h; read-out: Parent compound concentration following intravenous administration

Row | concentration at 0.133 h [ng/mL] | Structure (SMILES)
25 | 8350 | C=C(CC(=O)OC1CCCCCCC1)C(=O)OCCC(=O)O [Example 82, 3-((4-(cyclooctyloxy)-2-methylene-4-oxobutanoyl)oxy)propanoic acid]

Same assay, conditions: male, C57BL/6, mouse, iv; plasma, 10 mg/kg i.v., time 0.25 h; read-out: Parent compound concentration following intravenous administration

Row | concentration at 0.25 h [ng/mL] | Structure (SMILES)
26 | 2780 | C=C(CC(=O)OC1CCCCCCC1)C(=O)OCCC(=O)O [Example 82, 3-((4-(cyclooctyloxy)-2-methylene-4-oxobutanoyl)oxy)propanoic acid]
27 | 1030 | C=C(CC(=O)O[C@@H](C)CCCCCC)C(=O)OCCC(=O)O [Example 84, (S)-3-((2-methylene-4-(octan-2-yloxy)-4-oxobutanoyl)oxy)propanoic acid]

Same assay, conditions: male, C57BL/6, mouse, iv; plasma, 10 mg/kg i.v., time 0.5 h; read-out: Parent compound concentration following intravenous administration

Row | concentration at 0.5 h [ng/mL] | Structure (SMILES)
28 | 752 | C=C(CC(=O)OC1CCCCCCC1)C(=O)OCCC(=O)O [Example 82, 3-((4-(cyclooctyloxy)-2-methylene-4-oxobutanoyl)oxy)propanoic acid]
29 | 217 | C=C(CC(=O)O[C@@H](C)CCCCCC)C(=O)OCCC(=O)O [Example 84, (S)-3-((2-methylene-4-(octan-2-yloxy)-4-oxobutanoyl)oxy)propanoic acid]

Same assay, conditions: male, C57BL/6, mouse, iv; plasma, 10 mg/kg i.v., time 1 h; read-out: Parent compound concentration following intravenous administration

Row | concentration at 1 h [ng/mL] | Structure (SMILES)
30 | 69 | C=C(CC(=O)OC1CCCCCCC1)C(=O)OCCC(=O)O [Example 82, 3-((4-(cyclooctyloxy)-2-methylene-4-oxobutanoyl)oxy)propanoic acid]
31 | 34 | C=C(CC(=O)O[C@@H](C)CCCCCC)C(=O)OCCC(=O)O [Example 84, (S)-3-((2-methylene-4-(octan-2-yloxy)-4-oxobutanoyl)oxy)propanoic acid]

Same assay, conditions: male, C57BL/6, mouse, iv; plasma, 10 mg/kg i.v., time 2 h; read-out: Parent compound concentration following intravenous administration

Row | concentration at 2 h [ng/mL] | Structure (SMILES)
32 | 2.2 | C=C(CC(=O)OC1CCCCCCC1)C(=O)OCCC(=O)O [Example 82, 3-((4-(cyclooctyloxy)-2-methylene-4-oxobutanoyl)oxy)propanoic acid]
33 | 6.5 | C=C(CC(=O)O[C@@H](C)CCCCCC)C(=O)OCCC(=O)O [Example 84, (S)-3-((2-methylene-4-(octan-2-yloxy)-4-oxobutanoyl)oxy)propanoic acid]

Same assay, conditions: male, C57BL/6, mouse, iv; plasma, 10 mg/kg i.v., time 4 h; read-out: Parent compound concentration following intravenous administration

Row | concentration at 4 h [ng/mL] | Structure (SMILES)
34 | 1.4 | C=C(CC(=O)OC1CCCCCCC1)C(=O)OCCC(=O)O [Example 82, 3-((4-(cyclooctyloxy)-2-methylene-4-oxobutanoyl)oxy)propanoic acid]
35 | < 2 | C=C(CC(=O)O[C@@H](C)CCCCCC)C(=O)OCCC(=O)O [Example 84, (S)-3-((2-methylene-4-(octan-2-yloxy)-4-oxobutanoyl)oxy)propanoic acid]

Same assay, conditions: male, C57BL/6, mouse, iv; plasma, 10 mg/kg i.v., time 6 h; read-out: Parent compound concentration following intravenous administration

Row | concentration at 6 h [ng/mL] | Structure (SMILES)
36 | 1.6 | C=C(CC(=O)OC1CCCCCCC1)C(=O)OCCC(=O)O [Example 82, 3-((4-(cyclooctyloxy)-2-methylene-4-oxobutanoyl)oxy)propanoic acid]
37 | < 2 | C=C(CC(=O)O[C@@H](C)CCCCCC)C(=O)OCCC(=O)O [Example 84, (S)-3-((2-methylene-4-(octan-2-yloxy)-4-oxobutanoyl)oxy)propanoic acid]

Same assay, conditions: male, C57BL/6, mouse, iv; plasma, 10 mg/kg i.v., time 8 h; read-out: Parent compound concentration following intravenous administration

Row | concentration at 8 h [ng/mL] | Structure (SMILES)
38 | < 0.8 | C=C(CC(=O)OC1CCCCCCC1)C(=O)OCCC(=O)O [Example 82, 3-((4-(cyclooctyloxy)-2-methylene-4-oxobutanoyl)oxy)propanoic acid]
